Measured values reported in article PMC12361428 (Nature Communications, 2025).
Several values for one entry are separate records, joined by “and”; a condition that tells them apart may be missing. Equal values may be shown once. Entries after “also recorded” stand apart in the source; their conditions may differ.

Tests used:
Nluc-A3AR WT = biological target: T1, Nluc-A3AR WT (Homo sapiens, UniProt P0DMS8); experiment: biochemical; format: binding
T1 construct: expressed in transfected cells; host or cells: HEK293a
Method: (§1) All experiments were performed in duplicate.
(§2) Data were expressed as the mean ± standard error. All binding and Trupath data were analysed using the nonlinear regression curve-fitting programme with Prism 10 (GraphPad, San Diego, CA, USA). For nanoBRET saturation binding experiments, specific binding was calculated by subtracting non-specific binding (defined as binding in the presence of 10 µM MRS1220) from total binding. Specific binding data in each experiment were then normalised to the maximal binding (Bmax) of WT and fit to a one-site specific binding equation: Y =Bmax*[X]/(Kd + [X]). For nanoBRET competition binding experiments, data were normalised to total and non-specific binding responses and fit to a one-site—Fit Ki equation. […] Significant differences vs WT were determined by one-way ANOVA with a Dunnett’s multiple comparison test.

Nluc-A3AR Y15A^1.35 = biological target: T2, Nluc-A3AR Y15A^1.35 (Homo sapiens, UniProt P0DMS8, Y15A); experiment: biochemical; format: binding
T2 construct: expressed in transfected cells; host or cells: HEK293a
Method: as §1
(§3) Data were expressed as the mean ± standard error. All binding and Trupath data were analysed using the nonlinear regression curve-fitting programme with Prism 10 (GraphPad, San Diego, CA, USA). For nanoBRET saturation binding experiments, specific binding was calculated by subtracting non-specific binding (defined as binding in the presence of 10 µM MRS1220) from total binding. Specific binding data in each experiment were then normalised to the maximal binding (Bmax) of WT and fit to a one-site specific binding equation: Y =Bmax*[X]/(Kd + [X]). For nanoBRET competition binding experiments, data were normalised to total and non-specific binding responses and fit to a one-site—Fit Ki equation. Trupath's experimental data was baseline-corrected to the initial four baseline reads and then adjusted to the buffer control response. The area under the curve (AUC) for each response was calculated and plotted with a non-linear regression curve (log[agonist] vs response, three-parameter model), using the equation: Y = Bottom + (Top–Bottom)/(1 + 10^((LogEC50-X))). Here, X represents the log dose of the agonist, Y is the BRET2 AUC response, Top and Bottom are the curve plateaus, and EC50 is the agonist concentration yielding a response halfway between the Bottom and Top values. […] The efficacy of the agonists (τA) was separately calculated using the Black–Leff operational model of agonism[79] using KA values from Table 2 and then corrected for receptor expression relative to WT using Bmax values from Table 1[80]. Significant differences vs WT were determined by one-way ANOVA with a Dunnett’s multiple comparison test.

Nluc-A3AR S73A^2.65 = biological target: T3, Nluc-A3AR S73A^2.65 (Homo sapiens, UniProt P0DMS8, S73A); experiment: biochemical; format: binding
T3 construct: expressed in transfected cells; host or cells: HEK293a
Method: as §1, §2

Nluc-A3AR T94A^3.36 = biological target: T4, Nluc-A3AR T94A^3.36 (Homo sapiens, UniProt P0DMS8, T94A); experiment: biochemical; format: binding
T4 construct: expressed in transfected cells; host or cells: HEK293a
Method: as §1, §3

Nluc-A3AR H95A^3.37 = biological target: T5, Nluc-A3AR H95A^3.37 (Homo sapiens, UniProt P0DMS8, H95A); experiment: biochemical; format: binding
T5 construct: expressed in transfected cells; host or cells: HEK293a
Method: as §1
(§4) Data were expressed as the mean ± standard error. All binding and Trupath data were analysed using the nonlinear regression curve-fitting programme with Prism 10 (GraphPad, San Diego, CA, USA). For nanoBRET saturation binding experiments, specific binding was calculated by subtracting non-specific binding (defined as binding in the presence of 10 µM MRS1220) from total binding. Specific binding data in each experiment were then normalised to the maximal binding (Bmax) of WT and fit to a one-site specific binding equation: Y =Bmax*[X]/(Kd + [X]). For nanoBRET competition binding experiments, data were normalised to total and non-specific binding responses and fit to a one-site—Fit Ki equation. Trupath's experimental data was baseline-corrected to the initial four baseline reads and then adjusted to the buffer control response. The area under the curve (AUC) for each response was calculated and plotted with a non-linear regression curve (log[agonist] vs response, three-parameter model), using the equation: Y = Bottom + (Top–Bottom)/(1 + 10^((LogEC50-X))). Here, X represents the log dose of the agonist, Y is the BRET2 AUC response, Top and Bottom are the curve plateaus, and EC50 is the agonist concentration yielding a response halfway between the Bottom and Top values. […] Significant differences vs WT were determined by one-way ANOVA with a Dunnett’s multiple comparison test. Significance levels are indicated as follows: P ≤ 0.0001****, P = 0.0001–0.001***, P = 0.001–0.01**, and P = 0.01–0.05*.

Nluc-A3AR H95F^3.37 = biological target: T6, Nluc-A3AR H95F^3.37 (Homo sapiens, UniProt P0DMS8, H95F); experiment: biochemical; format: binding
T6 construct: expressed in transfected cells; host or cells: HEK293a
Method: as §1, §4

Nluc-A3AR V169E^45.53 = biological target: T7, Nluc-A3AR V169E^45.53 (Homo sapiens, UniProt P0DMS8, V169E); experiment: biochemical; format: binding
T7 construct: expressed in transfected cells; host or cells: HEK293a
Method: as §1, §4

Nluc-A3AR M174A^5.35 = biological target: T8, Nluc-A3AR M174A^5.35 (Homo sapiens, UniProt P0DMS8, M174A); experiment: biochemical; format: binding
T8 construct: expressed in transfected cells; host or cells: HEK293a
Method: as §1, §3

Nluc-A3AR Y265A^7.36 = biological target: T9, Nluc-A3AR Y265A^7.36 (Homo sapiens, UniProt P0DMS8, Y265A); experiment: biochemical; format: binding
T9 construct: expressed in transfected cells; host or cells: HEK293a
Method: as §1, §3

Nluc-A3AR S271A^7.42 = biological target: T10, Nluc-A3AR S271A^7.42 (Homo sapiens, UniProt P0DMS8, S271A); experiment: biochemical; format: binding
T10 construct: expressed in transfected cells; host or cells: HEK293a
Method: as §1, §2

A3AR-BRIL-S97R = biological target: T11, A3AR-BRIL-S97R (Homo sapiens, UniProt P0DMS8, N160A/S97R, form not given); experiment: NanoBRET competition binding vs XAC-630; settings: for XAC-630 NanoBRET binding, normalised (Figure S2H), individual replicates: A3AR-BRIL-S97R
T11 sequence (P0DMS8 1-318 S97R/N160A): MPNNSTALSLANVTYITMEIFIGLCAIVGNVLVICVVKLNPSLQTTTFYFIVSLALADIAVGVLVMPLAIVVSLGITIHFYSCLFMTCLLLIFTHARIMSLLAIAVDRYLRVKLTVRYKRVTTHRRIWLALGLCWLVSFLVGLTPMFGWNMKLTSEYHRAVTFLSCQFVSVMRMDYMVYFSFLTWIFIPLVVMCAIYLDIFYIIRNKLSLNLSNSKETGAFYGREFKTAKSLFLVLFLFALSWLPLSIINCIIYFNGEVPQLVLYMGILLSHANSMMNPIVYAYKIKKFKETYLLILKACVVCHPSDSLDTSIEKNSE

[1] = tested on: Nluc-tagged hA3AR-BRIL-S97R; experiment: NanoBRET washout (irreversible binding) assay vs XAC-630

T3 sequence (P0DMS8 whole entry S73A): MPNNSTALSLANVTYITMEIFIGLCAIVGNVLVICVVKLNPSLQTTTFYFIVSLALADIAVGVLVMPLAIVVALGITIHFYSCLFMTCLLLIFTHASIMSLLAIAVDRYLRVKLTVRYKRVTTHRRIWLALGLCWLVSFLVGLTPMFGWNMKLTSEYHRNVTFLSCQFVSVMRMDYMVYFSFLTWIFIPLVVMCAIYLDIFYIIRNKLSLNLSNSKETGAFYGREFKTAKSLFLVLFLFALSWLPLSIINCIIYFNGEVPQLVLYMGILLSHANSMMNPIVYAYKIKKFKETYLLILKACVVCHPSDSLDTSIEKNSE
T2 sequence (P0DMS8 whole entry Y15A): as the sequence (P0DMS8 whole entry S73A) above, with Y15A, A73S counted along it
T4 sequence (P0DMS8 whole entry T94A): as the sequence (P0DMS8 whole entry S73A) above, with A73S, T94A counted along it
T1 sequence (P0DMS8 whole entry): as the sequence (P0DMS8 whole entry S73A) above, with A73S counted along it
T9 sequence (P0DMS8 whole entry Y265A): as the sequence (P0DMS8 whole entry S73A) above, with A73S, Y265A counted along it
T6 sequence (P0DMS8 whole entry H95F): as the sequence (P0DMS8 whole entry S73A) above, with A73S, H95F counted along it
T7 sequence (P0DMS8 whole entry V169E): as the sequence (P0DMS8 whole entry S73A) above, with A73S, V169E counted along it
T8 sequence (P0DMS8 whole entry M174A): as the sequence (P0DMS8 whole entry S73A) above, with A73S, M174A counted along it
T10 sequence (P0DMS8 whole entry S271A): as the sequence (P0DMS8 whole entry S73A) above, with A73S, S271A counted along it
T5 sequence (P0DMS8 whole entry H95A): as the sequence (P0DMS8 whole entry S73A) above, with A73S, H95A counted along it

CCCn1c(=O)c2c(nc3cc(OC)ccn32)n(CCCCNC(=O)c2ccc(S(=O)(=O)F)cc2)c1=O [LUF7602]
pKi (Nluc-A3AR WT; WT): 7.5 ± 0.05 (4)
ΔpKi relative to WT (Nluc-A3AR WT; WT): 0
pKi Mean (Figure S2H) (Nluc-A3AR WT; WT, n 3): 7.306
XAC-630 NanoBRET binding, normalised (Figure S2H), individual replicates (Nluc-A3AR WT; log LUF7602 -5, A3AR-WT): 0
normalised XAC-630 binding at 10 µM (Nluc-A3AR WT; read-out: XAC-630 NanoBRET binding, normalised (Figure S2H), individual replicates, log LUF7602 -5, A3AR-WT): 0%
normalised XAC-630 binding at 0.1 µM (Nluc-A3AR WT; read-out: XAC-630 NanoBRET binding, normalised (Figure S2H), individual replicates, log LUF7602 -7, A3AR-WT): 59.3%
normalised XAC-630 binding at 0.01 µM (Nluc-A3AR WT; read-out: XAC-630 NanoBRET binding, normalised (Figure S2H), individual replicates, log LUF7602 -8, A3AR-WT): 78%
normalised XAC-630 binding at 0.0001 µM (Nluc-A3AR WT; read-out: XAC-630 NanoBRET binding, normalised (Figure S2H), individual replicates, log LUF7602 -10, A3AR-WT): 89.4%
normalised XAC-630 binding at 0.06026 µM (Nluc-A3AR WT; read-out: normalised XAC-630 binding, WT, log[LUF7602] -7.22 M): 69.6%
normalised XAC-630 binding at 0.006026 µM (Nluc-A3AR WT; read-out: normalised XAC-630 binding, WT, log[LUF7602] -8.22 M): 96.8%
normalised XAC-630 binding at 0.0006026 µM (Nluc-A3AR WT; read-out: normalised XAC-630 binding, WT, log[LUF7602] -9.22 M): 90.4%
normalised XAC-630 binding at 60.26 pM (Nluc-A3AR WT; read-out: normalised XAC-630 binding, WT, log[LUF7602] -10.22 M): 100%
pKi (Nluc-A3AR Y15A^1.35; Y15A): 6.6 ± 0.2 (4)
reduction of binding affinity vs WT (Nluc-A3AR Y15A^1.35; Y15A): 10 fold
ΔpKi relative to WT (Nluc-A3AR Y15A^1.35; Y15A): -0.882
remaining activity at 60.26 pM (Nluc-A3AR Y15A^1.35; read-out: normalised XAC-630 binding, Y15A, log[LUF7602] -10.22 M): 100%
pKi (Nluc-A3AR S73A^2.65; S73A): 7.2 ± 0.06 (3)
ΔpKi relative to WT (Nluc-A3AR S73A^2.65; S73A): -0.31
remaining activity at 0.06026 µM (Nluc-A3AR S73A^2.65; read-out: normalised XAC-630 binding, S73A, log[LUF7602] -7.22 M): 71.4%
remaining activity at 0.006026 µM (Nluc-A3AR S73A^2.65; read-out: normalised XAC-630 binding, S73A, log[LUF7602] -8.22 M): 90.3%
remaining activity at 0.0006026 µM (Nluc-A3AR S73A^2.65; read-out: normalised XAC-630 binding, S73A, log[LUF7602] -9.22 M): 91.8%
remaining activity at 60.26 pM (Nluc-A3AR S73A^2.65; read-out: normalised XAC-630 binding, S73A, log[LUF7602] -10.22 M): 100%
remaining activity at 0.6026 µM (Nluc-A3AR S73A^2.65; read-out: normalised XAC-630 binding, S73A, log[LUF7602] -[…]): 19.1%
pKi (Nluc-A3AR T94A^3.36; T94A): 7.3 ± 0.05 (3)
ΔpKi relative to WT (Nluc-A3AR T94A^3.36; T94A): -0.208
remaining activity at 0.06026 µM (Nluc-A3AR T94A^3.36; read-out: normalised XAC-630 binding, T94A, log[LUF7602] -7.22 M): 77.1%
remaining activity at 0.006026 µM (Nluc-A3AR T94A^3.36; read-out: normalised XAC-630 binding, T94A, log[LUF7602] -8.22 M): 100%
remaining activity at 0.0006026 µM (Nluc-A3AR T94A^3.36; read-out: normalised XAC-630 binding, T94A, log[LUF7602] -9.22 M): 87.2%
remaining activity at 60.26 pM (Nluc-A3AR T94A^3.36; read-out: normalised XAC-630 binding, T94A, log[LUF7602] -10.22 M): 100%
pKi (Nluc-A3AR H95A^3.37; H95A): 6.2 ± 0.2 (3)
reduction of binding affinity vs WT (Nluc-A3AR H95A^3.37; H95A): ~ 10 fold
ΔpKi relative to WT (Nluc-A3AR H95A^3.37; H95A): -1.328
remaining activity at 0.1 µM (Nluc-A3AR H95A^3.37; read-out: normalised XAC-630 binding, H95A, log[LUF7602] -7 M): 98.1%
remaining activity at 0.01 µM (Nluc-A3AR H95A^3.37; read-out: normalised XAC-630 binding, H95A, log[LUF7602] -8 M): 113%
remaining activity at 0.001 µM (Nluc-A3AR H95A^3.37; read-out: normalised XAC-630 binding, H95A, log[LUF7602] -9 M): 104%
remaining activity at 0.0001 µM (Nluc-A3AR H95A^3.37; read-out: normalised XAC-630 binding, H95A, log[LUF7602] -10 M): 100%
pKi (Nluc-A3AR H95F^3.37; H95F): 6.4 ± 0.09 (3)
reduction of binding affinity vs WT (Nluc-A3AR H95F^3.37; H95F): ~ 10 fold
ΔpKi relative to WT (Nluc-A3AR H95F^3.37; H95F): -1.06
remaining activity at 0.006026 µM (Nluc-A3AR H95F^3.37; read-out: normalised XAC-630 binding, H95F, log[LUF7602] -8.22 M): 88.8%
remaining activity at 60.26 pM (Nluc-A3AR H95F^3.37; read-out: normalised XAC-630 binding, H95F, log[LUF7602] -10.22 M): 100%
remaining activity at 0.6026 µM (Nluc-A3AR H95F^3.37; read-out: normalised XAC-630 binding, H95F, log[LUF7602] -[…]): 47%
pKi (Nluc-A3AR V169E^45.53; V169E): 7.2 ± 0.05 (3)
ΔpKi relative to WT (Nluc-A3AR V169E^45.53; V169E): -0.293
remaining activity at 0.06026 µM (Nluc-A3AR V169E^45.53; read-out: normalised XAC-630 binding, V169E, log[LUF7602] -7.22 M): 87.5%
remaining activity at 0.006026 µM (Nluc-A3AR V169E^45.53; read-out: normalised XAC-630 binding, V169E, log[LUF7602] -8.22 M): 97.5%
remaining activity at 0.0006026 µM (Nluc-A3AR V169E^45.53; read-out: normalised XAC-630 binding, V169E, log[LUF7602] -9.22 M): 105%
remaining activity at 60.26 pM (Nluc-A3AR V169E^45.53; read-out: normalised XAC-630 binding, V169E, log[LUF7602] -10.22 M): 100%
remaining activity at 0.6026 µM (Nluc-A3AR V169E^45.53; read-out: normalised XAC-630 binding, V169E, log[LUF7602] -[…]): 17%
pKi (Nluc-A3AR M174A^5.35; M174A): 6.5 ± 0.09 (3)
reduction of binding affinity vs WT (Nluc-A3AR M174A^5.35; M174A): 10 fold
ΔpKi relative to WT (Nluc-A3AR M174A^5.35; M174A): -0.957
remaining activity at 0.06026 µM (Nluc-A3AR M174A^5.35; read-out: normalised XAC-630 binding, M174A, log[LUF7602] -7.22 M): 96.7%
remaining activity at 0.0006026 µM (Nluc-A3AR M174A^5.35; read-out: normalised XAC-630 binding, M174A, log[LUF7602] -9.22 M): 112%
remaining activity at 60.26 pM (Nluc-A3AR M174A^5.35; read-out: normalised XAC-630 binding, M174A, log[LUF7602] -10.22 M): 100%
remaining activity at 0.6026 µM (Nluc-A3AR M174A^5.35; read-out: normalised XAC-630 binding, M174A, log[LUF7602] -[…]): 44.9%
pKi (Nluc-A3AR Y265A^7.36; Y265A): 6.3 ± 0.07 (3)
reduction of binding affinity vs WT (Nluc-A3AR Y265A^7.36; Y265A): 15 fold
ΔpKi relative to WT (Nluc-A3AR Y265A^7.36; Y265A): -1.2
remaining activity at […] (Nluc-A3AR Y265A^7.36; read-out: normalised XAC-630 binding, Y265A, log[LUF7602] -9.5 M): 100%
ΔpKi relative to WT (Nluc-A3AR S271A^7.42; S271A): 0.423
pKi (Nluc-A3AR S271A^7.42; S271A, 40 nM XAC-630): 7.9 ± 0.09 (3)
remaining activity at 60.26 pM (Nluc-A3AR S271A^7.42; read-out: normalised XAC-630 binding, S271A, log[LUF7602] -10.22 M): 100%
remaining activity at 0.6026 µM (Nluc-A3AR S271A^7.42; read-out: normalised XAC-630 binding, S271A, log[LUF7602] -[…]): 5.71%
pKi Mean (Figure S2H) (A3AR-BRIL-S97R; BRIL-S97R, n 3): 7.024
XAC-630 NanoBRET binding, normalised (Figure S2H), individual replicates (A3AR-BRIL-S97R; log LUF7602 -5): 0
XAC-630 NanoBRET binding, normalised (Figure S2H), individual replicates (A3AR-BRIL-S97R; log LUF7602 -6): 19.3899 and 25.983 and 15.2236
XAC-630 NanoBRET binding, normalised (Figure S2H), individual replicates (A3AR-BRIL-S97R; log LUF7602 -7): 80.7723 and 57.132 and 87.3086
XAC-630 NanoBRET binding, normalised (Figure S2H), individual replicates (A3AR-BRIL-S97R; log LUF7602 -8): 99.2468 and 73.5169 and 111.113
XAC-630 NanoBRET binding, normalised (Figure S2H), individual replicates (A3AR-BRIL-S97R; log LUF7602 -9): 98.8814 and 81.6512 and 110.04
XAC-630 NanoBRET binding, normalised (Figure S2H), individual replicates (A3AR-BRIL-S97R; log LUF7602 -10): 102.286 and 79.8771 and 109.058
inhibition of XAC-630 binding after 4x washout ([1]; 10 μM, 4 h, 4 washing steps): wash-resistant inhibition; also recorded: retained inhibition
rebinding of XAC-630 in the washout experiments ([1]; 10 μM, 4 h, 4 washing steps): ~ 15%
NanoBRET washout assay, normalised signal (Figure S2G), individual replicates ([1]; 4 x Wash): 12.3969 and 12.724 and 15.9645 and 7.178
NanoBRET washout assay, normalised signal (Figure S2G), individual replicates ([1]; Control (no wash)): 1.693 and 0.891 and -0.3357 and 2.202
